For 91 compounds, melting point results are on record in a melting point compilation (Tetko et al.; mined from patent text by program, amines drawn as free bases though some values may be those of a salt).

Molecules are shown by their SMILES.

Consider `COc1ccc2c(c1)sc1nc(C)c(CO)n12`, for which the melting point – broadly, the temperature, or range, at which the solid turns liquid – came to 204 °C.

Compound `O=C1CCC(Nc2nccc(-n3nnc4ccccc43)n2)CC1` displayed a melting point of 205 to 206 °C.

Consider `CS(=O)CC(=O)c1cccn1Cc1ccccc1` (stereo unspecified), for which the melting point lay within 95 to 97 °C.

In turn, `CCC(=O)OCc1c2ccccc2cc2ccccc12` yielded a melting point of 79 to 80 °C.

On to `CCCCCCCCCCCCCCCCS(=O)(=O)N[C@H]1CCCNC(=O)C1`, for which the melting point is 100 to 101 °C.

In the case of `N#CCON=C(C(=O)O)c1csc(NC(c2ccccc2)(c2ccccc2)c2ccccc2)n1`, the melting point turned out to be 180 °C.

Regarding `CC(C)Oc1ccc(CCN2CCC3(CC2)CNC(=O)CO3)cc1`, the melting point was 135 to 137 °C.

Compound `Cc1c(O)cccc1C(=O)N[C@@H](Cc1ccccc1)[C@H](O)C(=O)N1CSC(C)(C)[C@H]1C(=O)N[C@@H]1CCOc2ccccc21` registered a melting point of 135 to 136 °C.

For the compound `O=C(NCCO)c1cccc(-c2cccc3nn(Cc4ccccc4)cc23)c1`, the melting point lay in the range of 166 to 167 °C.

Regarding `CCNc1cc(-c2c[nH]c(C)n2)ccn1`, the melting point is 214 to 216 °C.

Take `Nc1nc(=O)n(-c2ccsc2)cc1F`: the melting point lay within 228 to 229 °C.

The compound `Cc1sc2c(c1C(=O)CCN1CCN(c3nsc4ccccc34)CC1)NC(=O)CCC2` displayed a melting point of 146 to 147 °C.

`COc1ncnc(-c2cc([N+](=O)[O-])c(F)cc2F)c1Cl` gave a melting point of 84 to 88 °C.

As for `COC(=O)C=Cc1c(C(=O)OC)c2c(n1C)C(=O)C=C(OC)C2=O`, the melting point lay in the range of 235 to 236 °C.

Compound `C=CCOc1ccc(CC(=O)O)cc1` showed a melting point of 61 to 62 °C.

`Nc1cncc(O)c1CCCOc1cccnc1Oc1cccc(Cl)c1` registered a melting point of 75 to 90 °C.

As to `CCCCn1c(=O)n(CCC)c(=O)c2c3n(nc21)CCCN3`, the melting point was in the range of 147 to 150 °C.

`COc1ccc(Oc2c(N)cc(C(=O)O)cc2S(N)(=O)=O)cc1` yielded a melting point of 260 to 261 °C.

Consider `O=C1COCc2cc(-c3ccccc3)ccc21`, for which the melting point lay within 127 to 128 °C.

As for `CCN(CC)C(=O)c1c(OC)cccc1-c1ccccc1`, the melting point lay within 79 to 80 °C.

For the compound `COc1c(/C=C/c2ccc(C(=O)O)cc2)c(C)cc2c1C(C)(C)CCC2(C)C`, the melting point is 222 to 223 °C.

Consider `CCCCCCCCOc1ccc(-c2ncc(Br)cn2)cc1`, for which the melting point was 95 °C.

In turn, `CCCCCCCCCCCCc1ccccc1C(SC(CC(=O)O)C(=O)O)C(=O)O` (stereo unspecified) returned a melting point of 85 to 89 °C.

With `CS(=O)(=O)Nc1cc(C(O)CNCCCCCCOCCCCOc2ccc3ccccc3c2)ccc1O` (stereo unspecified), the melting point was in the range of 99.5 to 100 °C.

Take `[N-]=[N+]=C1CCc2ccccc2C1=O`: the melting point lay within 50 to 52 °C.

`CCOC(=O)CCCC(=O)CNC(=O)c1csc(NC(=O)NCc2ccccc2)n1` gave a melting point of 135 to 136 °C.

As for `O=C(NCCCN1NC=NN1)c1ccccc1[N+](=O)[O-]`, the melting point lay in the range of 148 to 150 °C.

For the compound `Cc1ccc2c(c1)c(=O)[nH]c1c2c2ccccc2n1C`, the melting point is more than 310 °C.

Regarding `CN(CC(C)(C)NCc1c(CO)ccc(OCc2ccccc2)c1CO)c1ccccc1`, the melting point was in the range of 93 to 98 °C.

Take `Cn1c(=O)oc2cc(C(O)CBr)cnc21` (stereo unspecified): the melting point was 127 to 129 °C.

`COc1ccc(S(=O)(=O)N(CC(N)=O)c2ccc(Cl)cc2Cc2cc(Cl)ccc2Cl)cc1OC` yielded a melting point of 200 °C.

`CC#CCOc1ccc(C(=O)NC[C@@H](C(=O)NO)N2CCCCC2)cc1` gave a melting point of 144 °C.

As for `OCC1Cc2cc(F)cc(Br)c2O1` (stereo unspecified), the melting point was in the range of 53 to 57 °C.

With `COC(=O)c1c(Oc2ccc(Cl)cc2[N+](=O)[O-])c2ccccc2n1Cc1ccccc1`, the melting point was in the range of 120 to 121 °C.

Compound `Fc1ccc(C#Cc2ccnc(Cl)n2)cc1` yielded a melting point of 125 to 126 °C.

In the case of `O=C(c1ccc2[nH]ccc2c1)N1CCN(CCc2ccccc2)CC1`, the melting point was 105 to 108 °C.

In the case of `CC1(C)COc2cc3c(cc21)C1(CO3)C(=O)N(Cc2ccc(C(F)(F)F)o2)c2ccccc21` (stereo unspecified), the melting point is 155 to 160 °C.

On to `COC(=O)c1ccc(S(C)(=O)=O)c(C2=NOCC2)c1C`, for which the melting point fell in the range of 104 to 106 °C.

In turn, `O=C(C=CCl)CCCN1C(=O)c2ccccc2C1=O` had a melting point of 92 °C.

In turn, `Cc1cc(C)c(C(C#N)C=O)c(C)c1` (stereo unspecified) yielded a melting point of 120 to 122 °C.

Compound `CN(C)c1c(C(N)=O)sc2cccc(Cl)c12` displayed a melting point of 194 to 196 °C.

The compound `O=C(Oc1ccc(F)cc1)c1cc(C(F)(F)F)cc(C(F)(F)F)c1` showed a melting point of 60 to 61 °C.

In the case of `CN1Cc2c(/C=C\Cl)ncn2-c2cccc(Cl)c2C1=O`, the melting point lay within 205 to 207 °C.

As for `COc1cc(COc2nn(-c3ccccc3)cc2CC#N)ccc1OCc1nc(-c2ccco2)oc1C`, the melting point was 153 to 154 °C.

In turn, `Cc1cc(Cl)cc(C(=O)NCC(C)S(C)=O)c1NC(=O)c1cc(C(F)(F)F)nn1-c1ncccc1Cl` (stereo unspecified) returned a melting point of 229 to 232 °C.

`O=C(NCc1ccccc1)C1CC=CC(O)C1` (stereo unspecified) gave a melting point of 127 to 128 °C.

Compound `CCc1c2c(c(C)c(C)c1N1CCN(c3ccc(OC)cc3)CC1)OC(C)(C)C2` displayed a melting point of 150 to 151 °C.

Consider `CC(=O)OCc1nc([N+](=O)[O-])c(Br)n1C`, for which the melting point lay within 92 to 97 °C.

Take `Clc1cc(Nc2cc(C3CC3)n[nH]2)nc(Sc2ccc3ccccc3c2)n1`: the melting point was 118 to 120 °C.

As to `Cc1ccc(S(=O)(=O)Nc2ccccc2C(=O)NCCc2ncc[nH]2)cc1`, the melting point lay in the range of 173 to 181 °C.

Compound `NS(=O)(=O)c1cc(C(=O)O)cc(SCc2ccccc2)c1Oc1ccccc1` showed a melting point of 235 to 236 °C.

With `O=c1c(CCCCc2ccccn2)cc2cccnc2n1-c1cccc([N+](=O)[O-])c1`, the melting point is 163 to 165 °C.

`CCOC(=O)c1cn(-c2nc(NC(C)C)c(F)cc2F)c2c(Cl)c(F)c(F)cc2c1=O`: the melting point was in the range of 206 to 209 °C.

Compound `COc1cccc(CSCCNC(=O)c2c(OC)cccc2OC)c1` displayed a melting point of 41 to 43 °C.

The compound `O=S(=O)(CCO)CCCS(=O)(=O)CCO` yielded a melting point of 158 to 161 °C.

As for `Cc1nc2c(N)nc3ccccc3c2n1CCCCS(C)=O` (stereo unspecified), the melting point fell in the range of 184 to 187 °C.

Compound `COc1cccc2c1cc(C=O)n2Cc1ccccc1` displayed a melting point of 130 to 131 °C.

Take `COc1cncnc1N1CCN(CCCc2csc3ccc(C(N)=O)cc23)CC1`: the melting point fell in the range of 169 to 170 °C.

Consider `COc1ccc(COc2cc(NC(C)=O)c(Cl)cc2C(=O)CCCCCl)cc1OC`, for which the melting point came to 147 °C.

With `O=C(O)Cc1c(C(=O)c2ccccc2)[nH]c2c(Cl)cccc12`, the melting point lay within 190 to 193 °C.

`O=[N+]([O-])c1cccc(OCCc2c[nH]cn2)c1` came in with a melting point of 174 to 178 °C.

`CC(=O)Oc1ccc(-c2ccc(C(C)O)cc2)cc1` (stereo unspecified): the melting point lay within 142 to 144 °C.

Compound `COc1cccc(CNc2ncnc3c2sc2nc(N4CCCC4)c4c(c23)CC(C)(C)CC4)c1OC` displayed a melting point of 194 to 195 °C.

Compound `COc1ccc(S(=O)(=O)c2cnc(C)nc2Cc2c(C)cc(C)cc2C)cc1` gave a melting point of 150 to 152 °C.

Compound `Cc1c(CC(N)=O)c2cc(OCCCP(=O)(O)O)ccc2n1Cc1ccccc1` registered a melting point of 199 to 203 °C.

As for `Nc1c(C(=O)c2cc(Cl)ccn2)[nH]c2cc(Cl)ccc12`, the melting point was in the range of 234 to 235 °C.

For `CN(c1cccc2cc(-c3nccs3)[nH]c12)S(=O)(=O)c1ccsc1C(N)=O`, the melting point amounted to 269 °C.

Take `COc1nc(C)c(N2CCCn3c2nc2cccc(C(O)C(F)(F)F)c23)c(C)n1` (stereo unspecified): the melting point is 296 to 299 °C.

`Cc1cc(-c2ccc(Cl)cc2)nc2c(I)cnn12` came in with a melting point of 147 to 148 °C.

`CCCCCCCCCCc1cccc(C(=O)N(O)CCCC(=O)O)c1` showed a melting point of 77 to 79 °C.

`Cc1ccccc1-c1cc(=O)c(C)c(-c2ccccc2)n1-c1ccccc1` yielded a melting point of 188 to 191 °C.

`CC(=O)Nc1ccc(S(=O)(=O)N2CCN(c3c(F)cc4c(=O)c(C(=O)O)cn(C5CC5)c4c3F)CC2)cc1` showed a melting point of 282 to 284 °C.

Compound `N#CCC(=O)NCc1cccc(Cl)c1` registered a melting point of 123 to 125 °C.

On to `CC(CF)c1ccc(NC(=O)N(C)C)cc1` (stereo unspecified), for which the melting point fell in the range of 145 to 146 °C.

Regarding `COc1ccc(Oc2c(Cl)cc(-n3ncc(=O)[nH]c3=O)cc2Cl)cc1C=O`, the melting point is 184 to 187 °C.

Consider `Nc1ccc(-c2noc(-c3cnn4c(C(F)(F)F)cc(-c5ccc(C(F)(F)F)cc5)nc34)n2)cn1`, for which the melting point was 257 °C.

In turn, `Cc1c(C(N)=O)oc2c(C(=O)O)cccc2c1=O` registered a melting point of more than 250 °C.

As for `Cc1cc(-n2cncn2)ccc1N`, the melting point is 122 to 125 °C.

Compound `CSc1oc2ccc(Br)cc2c(=O)c1-c1ccc(Cl)cc1` gave a melting point of 205 to 206 °C.

On to `CN(CCCOc1ccc(CC2SC(=O)NC2=O)cc1)c1nc2ccccc2o1` (stereo unspecified), for which the melting point is 171 to 173 °C.

Regarding `Cc1c(CCCC=CC(=O)O)cccc1Cc1ccc(Cl)cc1`, the melting point was found to be 115 °C.

On to `CCOC(=O)c1ccc(-c2cccc3cncn23)cc1`, for which the melting point was in the range of 118 to 119 °C.

The compound `CCOC(=O)C1=Cc2cc(F)c(Cl)cc2N(Cc2ccccc2)C1` gave a melting point of 211 to 212 °C.

`CCN1CC(C)Oc2cccc3nc4c(c1c23)CCCC4` (stereo unspecified) returned a melting point of 101 to 103 °C.

Take `COc1ccc(C(O)CCSc2ccc(S(N)(=O)=O)s2)cc1` (stereo unspecified): the melting point was 111 to 112 °C.

Regarding `Brc1ccc(C#CC#Cc2ccc(Br)cc2)cc1`, the melting point is 264 to 265 °C.

Consider `c1ccc2c(c1)-c1ccccc1C2Cc1nc(COc2ccc(CCCn3ccnc3)cc2)co1`, for which the melting point is 145 to 146 °C.

As for `COCC1CCCN1S(=O)(=O)c1ccc2c(c1)C1(OCCCO1)C1=NCCCN12` (stereo unspecified), the melting point lay within 129 to 130 °C.

`COC(=O)c1cccc(Cn2ccc(OCc3ccc(F)cc3F)c(Cl)c2=O)c1F` returned a melting point of 171 to 174 °C.

`C=CCOc1cc2c(cc1C=CC)N(CC=C(C)C)C(=O)CC2` yielded a melting point of 87 to 88 °C.

As to `COc1c(C)c(C)c2c(c1C)C(c1ccc(C=O)cc1)C(C)(C)O2` (stereo unspecified), the melting point fell in the range of 108 to 109 °C.
